The source of these data is patent US20080097385A1, “Therapeutic Adjuncts to Enhance the Organ Protective Effects of Postconditioning” (priority 2004, published 2008).

The test system of assay [1] is anesthetized open-chest rats (LCA occlusion/reperfusion). Kind of assay: Anesthetized open-chest rats: LCA occlusion 30 min, reperfusion 3 h; infarct size (TTC) with adenosine receptor antagonists with or without postconditioning. The assay is classed as in vivo. Particulars: rat. On the procedure:
(§1) Adenosine is a mediator of the cardioprotection of postconditioning. Isolated-perfused mouse hearts were subjected to 20 min global ischemia (I) and 30 min reperfusion (R) with or without Postcon (6 cycles of 10 sec. R & occlusion). Intravascular purines in coronary effluent were analyzed by HPLC. To determine whether endogenous adenosine played a physiological role in postconditioning, the left coronary artery (LCA) was occluded for 30 min and reperfused for 3 hours in anesthetized open-chest rats. The rats were randomly divided into six groups (n=8 each): Control (no intervention); postconditioning (3 cycles of 10-s R followed by 10-s LCA I before 3 hours R); 8-SPT (subtype non-selective adenosine receptor antagonist, 10 mg/kg), or ZW241385 (A2a receptor antagonist, 0.2 mg/kg), was given 5 min before R with or without postconditioning. In mouse hearts, postconditioning decreased effluent [adenosine] at 2 min R (58±5* vs 155±16 nM/min/g), and improved contractile function (LV developed pressure 32±7* vs 16±2 mmHg) and end-diastolic pressure (27±3* vs 36±3 mmHg) at 5 min R which persisted at 30 min R. In in vivo rats, postconditioning reduced infarct size (TTC) vs the control group (40±3.1%* vs 52±2.2%). 8-SPT (51±2.5%) or ZM241385 alone (50±2.1%) without postconditioning had no effect on infarct size. The infarct-sparing effect of postconditioning was abrogated by 8-SPT and ZM241385 (50±1.8% and 49±2.6%). Neutrophil (PMN) accumulation (myeloperoxidase activity) in the area at risk was less in postconditioning vs Control (1.0±0.2* vs 2.2±0.4 U/100 g protein); adenosine receptor antagonists blocked the reduction of PMN accumulation in postconditioning (postconditioning+8-SPT 2.1±0.2; postconditioning+ZM241385 1.6+0.2).

Assay [2] has the same test system. Kind of assay: Neutrophil (PMN) accumulation (myeloperoxidase activity) in the area at risk, rat LCA occlusion/reperfusion. The assay is classed as in vivo. The note with it: postconditioning + antagonist, postconditioning 1.0±0.2, Control 2.2±0.4. As to the method:
as §1, with “The infarct-sparing effect of postconditioning was abrogated by 8-SPT and ZM241385 (50±1.8% and 49±2.6%). Neutrophil (PMN) accumulation (myeloperoxidase activity) in the area at risk was less in postconditioning vs Control (1.0±0.2* vs 2.2±0.4 U/100 g protein); adenosine receptor antagonists blocked the reduction of PMN accumulation in postconditioning (postconditioning+8-SPT 2.1±0.2; postconditioning+ZM241385 1.6+0.2).” left out

For assay [3], the system named is rabbit model of myocardial infarction. Particulars: cited from earlier work.
The test system of assay [4] is rat model of myocardial infarction. Kind of assay: Rat model of myocardial infarction: LCA occlusion 30 min, reperfusion 3 h; infarct size with cariporide with or without postconditioning. In kind it is in vivo. As to the method:
Cross-hatched bar=time when the sodium-hydrogen exchange inhibitor (NHE-1), cariporide is administered intravenously. Vertical hatched bar=postconditioning algorithm. Control (n=8); occlusion of the left coronary artery (LCA) for 30 min (dark bar), was followed by 3 h of reperfusion (open bar). Post-con (n=8); 10 of full reperfusion (R, open bar) and 10 s of re-occlusion ischemia (I, dark bar) were repeated for three cycles. NHE(1) (n=8); cariporide (1 mg/kg) was injected 5 min prior to reperfusion, followed by unbridled R. NHE(1)+Post-con (n=8); cariporide followed by Post-con. Delay (D)-NHE(1) (n=8); cariporide was injected for 5 min after 1 min of full unbridled reperfusion. Post-con+D-NHE(1) (n=8); Post-con followed by injecting cariporide for 5 min. […] Infarct size is expressed as a percentage of AN and AAR. In all groups, infarct size decreased compared to that of Control. […] Post-con=postconditioning. Values are means ±SEM. Postconditioning can be enhanced by pharmacological means which capture the protective actions of the proximal mediators such as adenosine and opioids. In a rat model of myocardial infarction, it can be shown that the dual approach of attenuating reperfusion injury by applying postconditioning in the presence of a sodium-hydrogen exchange (NHE-1) inhibitor during early reperfusion achieves greater infarct size reduction than either intervention alone. Specifically, in an anesthetized rat model, the left coronary artery (LCA) was occluded for 30 min of ischemia (I) and reperfused for 3 hours. Rats were randomly divided into six groups (n=8 each) (FIG. 10): Control: no intervention at reperfusion; Postconditioning: three cycles of 10-s reperfusion followed by 10-s re-occlusion were applied during the first minute of reperfusion; NHE(1): cariporide (1 mg/kg) was infused 5 min before reperfusion, with or without postconditioning; Delayed (D)-NHE(1): a 5-minute infusion of cariporide was begun 1 min after onset of reperfusion equivalent to postconditioning period; Post-con+D-NHE(1): Completion of postconditioning was followed immediately by cariporide infusion for 5 min. […] When NHE(1) preceded postconditioning as a reperfusion intervention, infarct size was not further reduced (45±2%*) compared to either intervention alone. However, an additive reduction in infarct size was achieved when postconditioning preceded NHE(1) inhibitor at reperfusion (Post-con+D-N-HE(1), 34±2%). Thus, infarct size reduction by postconditioning is enhanced by NHE inhibition at reperfusion when postconditioning precedes cariporide administration.

Where [5] appears, read: antagonist alone, given 5 min before reperfusion, without postconditioning, control 52±2.2%.
[6] abbreviates: antagonist given 5 min before reperfusion, with postconditioning, postconditioning alone 40±3.1%.

SMILES strings stand for the structures. Like-named read-outs stand apart in the source and are kept apart here.

As to `Nc1nc(NCCc2ccc(O)cc2)nc2nc(-c3ccco3)nn12` [ZM241385], the “infarct size (TTC)” value in assay [1] (setting [5]) was 50±2.1%; in assay [1] (setting [6]) it was 49±2.6%. In addition, the “neutrophil (PMN) accumulation (myeloperoxidase activity) in the area at risk” value in assay [2] is reported as 1.6+0.2 U/100 g protein.

As to `FC(F)OC(Cl)C(F)(F)F` (stereo not shown) [isoflurane], the infarct size is recorded as 43±3 % of the left ventricular area at risk in assay [3] (0.5 minimum alveolar concentration isoflurane alone, control 41±2%); 21±2 % of the left ventricular area at risk in assay [3] (1.0 minimum alveolar concentration isoflurane alone, control 41±2%); 17±5 % of the left ventricular area at risk in assay [3] (combined postconditioning (10 s) and 0.5 minimum alveolar concentration isoflurane).

In the case of `Cn1c(=O)c2[nH]c(-c3ccc(S(=O)(=O)O)cc3)nc2n(C)c1=O` [8-SPT], the “infarct size (TTC)” value in assay [1] (setting [5]) was 51±2.5%; in assay [1] (setting [6]), 50±1.8%. Moreover, the “neutrophil (PMN) accumulation (myeloperoxidase activity) in the area at risk” value in assay [2] worked out at 2.1±0.2 U/100 g protein.

Consider `CC(C)c1ccc(C(=O)NC(=N)N)cc1S(C)(=O)=O` [cariporide], for which the “infarct size (AN as percentage of AAR)” value is listed as 43±2% in assay [4] (NHE(1) alone: cariporide 1 mg/kg infused 5 min before reperfusion, no postconditioning); 45±2% in assay [4] (NHE(1)+Post-con: cariporide 1 mg/kg 5 min before reperfusion, followed by postconditioning); 34±2% in assay [4] (Post-con+D-NHE(1): postconditioning followed immediately by 5 min cariporide infusion). The “decrease in infarct size compared with postconditioning alone” value in assay [4] (Post-con+D-NHE(1) group, FIG. 11) is on record as “significantly greater than postconditioning alone”.
